From US10526319B2, “Halogenated quinazolin-THF-amines as PDE1 inhibitors” (H. Lundbeck A/S, priority 2014, dated 2020)
pIC50: −log10 of the molar value.

Tests used:
Assay type in all cases: biochemical
Details in all cases: 15 nM tritium labelled cAMP, 1 h at room temperature
[1] = biological target: PDE1A (Homo sapiens, UniProt P54750); assay: PDE1 inhibition assay (SPA, tritium labelled cAMP), PDE1A
Procedure: (§1) PDE1A, PDE1B and PDE1C assays were performed as follows: the assays was performed in 60 μL samples containing a fixed amount of the PDE1 enzym1 (sufficient to convert 20-25% of the cyclic nucleotide substrate), a buffer (50 mM HEPES pH 7.6; 10 mM MgCl2; 0.02% Tween20), 0.1 mg/ml BSA, 15 nM tritium labelled cAMP and varying amounts of inhibitors. Reactions were initiated by addition of the cyclic nucleotide substrate, and reactions were allowed to proceed for 1 h at room temperature before being terminated through mixing with 20 μL (0.2 mg) yttrium silicate SPA beads (PerkinElmer). The beads were allowed to settle for 1 h in the dark before the plates were counted in a Wallac 1450 Microbeta counter. The measured signals were converted to activity relative to an uninhibited control (100%) and IC50 values were calculated using XlFit (model 205, IDBS).

[2] = biological target: PDE1B (Homo sapiens, UniProt Q01064); assay: PDE1 inhibition assay (SPA, tritium labelled cAMP), PDE1B
Procedure: as §1

[3] = biological target: PDE1C (Homo sapiens, UniProt Q14123); assay: PDE1 inhibition assay (SPA, tritium labelled cAMP), PDE1C
Procedure: as §1

PDE1A, sequence (P54750 whole entry): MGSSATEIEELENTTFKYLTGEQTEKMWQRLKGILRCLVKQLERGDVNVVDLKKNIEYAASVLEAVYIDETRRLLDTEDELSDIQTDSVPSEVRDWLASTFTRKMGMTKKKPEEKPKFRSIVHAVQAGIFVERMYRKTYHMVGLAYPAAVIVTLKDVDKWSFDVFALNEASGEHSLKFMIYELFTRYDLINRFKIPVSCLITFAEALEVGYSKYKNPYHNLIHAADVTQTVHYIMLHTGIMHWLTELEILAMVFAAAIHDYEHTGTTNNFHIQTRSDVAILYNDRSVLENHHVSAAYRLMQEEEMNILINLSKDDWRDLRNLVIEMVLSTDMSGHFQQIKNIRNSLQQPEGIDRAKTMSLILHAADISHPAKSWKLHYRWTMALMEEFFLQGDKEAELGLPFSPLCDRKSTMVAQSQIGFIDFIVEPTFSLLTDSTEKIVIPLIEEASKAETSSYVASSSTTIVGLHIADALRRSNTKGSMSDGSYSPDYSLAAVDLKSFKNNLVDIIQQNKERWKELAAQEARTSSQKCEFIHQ
PDE1B, sequence (Q01064 whole entry): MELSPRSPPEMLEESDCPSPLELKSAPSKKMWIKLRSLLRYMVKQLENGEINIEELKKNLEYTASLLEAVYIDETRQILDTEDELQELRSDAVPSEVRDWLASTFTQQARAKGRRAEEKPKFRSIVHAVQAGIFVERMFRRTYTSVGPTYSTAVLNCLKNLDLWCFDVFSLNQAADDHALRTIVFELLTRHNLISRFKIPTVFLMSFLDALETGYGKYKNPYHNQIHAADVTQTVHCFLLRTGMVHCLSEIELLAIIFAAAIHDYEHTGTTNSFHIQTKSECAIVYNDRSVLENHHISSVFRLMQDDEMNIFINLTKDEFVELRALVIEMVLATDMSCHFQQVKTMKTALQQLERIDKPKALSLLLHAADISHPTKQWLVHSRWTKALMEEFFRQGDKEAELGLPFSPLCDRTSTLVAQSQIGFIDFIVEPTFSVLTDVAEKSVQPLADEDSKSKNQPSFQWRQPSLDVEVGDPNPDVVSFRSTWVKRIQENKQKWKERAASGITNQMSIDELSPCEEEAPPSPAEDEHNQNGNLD
PDE1C, sequence (Q14123 whole entry): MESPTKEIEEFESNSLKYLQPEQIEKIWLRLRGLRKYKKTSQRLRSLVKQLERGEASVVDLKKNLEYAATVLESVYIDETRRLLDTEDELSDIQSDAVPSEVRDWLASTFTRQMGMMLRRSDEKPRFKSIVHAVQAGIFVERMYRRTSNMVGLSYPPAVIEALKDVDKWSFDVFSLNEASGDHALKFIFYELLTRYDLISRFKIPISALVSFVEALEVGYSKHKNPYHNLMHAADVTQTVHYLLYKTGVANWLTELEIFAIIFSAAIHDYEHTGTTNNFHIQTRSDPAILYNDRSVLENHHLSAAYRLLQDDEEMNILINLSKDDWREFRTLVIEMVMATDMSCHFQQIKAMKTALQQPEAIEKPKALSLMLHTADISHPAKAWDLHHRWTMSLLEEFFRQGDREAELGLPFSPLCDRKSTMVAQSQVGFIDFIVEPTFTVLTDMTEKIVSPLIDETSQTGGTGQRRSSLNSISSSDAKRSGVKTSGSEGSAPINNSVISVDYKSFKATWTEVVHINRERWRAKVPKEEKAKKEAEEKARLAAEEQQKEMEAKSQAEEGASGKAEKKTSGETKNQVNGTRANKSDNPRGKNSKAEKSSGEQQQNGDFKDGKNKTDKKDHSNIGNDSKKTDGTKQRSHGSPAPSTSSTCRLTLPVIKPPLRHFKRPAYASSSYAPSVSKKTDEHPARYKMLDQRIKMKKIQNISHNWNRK

`COc1ccc2c(N(C)C3CCOC3C)ncnc2c1F` (single isomer, unassigned) [18 Stereoisomer 4] gave a pIC50 [1] of 6.29, a pIC50 [2] of 7.22 and a pIC50 [3] of 6.92.

`COc1ccc2c(N(C)C3(C)CCOC3C)ncnc2c1F` (single isomer, unassigned) [19 Stereoisomer 1] showed a pIC50 [1] of 6.64, a pIC50 [2] of 7.49 and a pIC50 [3] of 7.07.

`COc1ccc2c(N(C)C3(C)CCOC3C)ncnc2c1F` (single isomer, unassigned) [19 Stereoisomer 2] was tested, and the pIC50 [1] was 6.73, the pIC50 [2] was 7.49 and the pIC50 [3] was 7.26.

For `COc1ccc2c(N(C)C3(C)CCOC3C)ncnc2c1F` (single isomer, unassigned) [19 Stereoisomer 3], the pIC50 [1] was 5.60, the pIC50 [2] was 6.38 and the pIC50 [3] was 5.92.

Work on `COc1ccc2c(N(C)C3(C)CCOC3C)ncnc2c1F` (single isomer, unassigned) [19 Stereoisomer 4] yielded a pIC50 [1] of 7.01, a pIC50 [2] of 8.00 and a pIC50 [3] of 7.47.
